# From PubChem BioAssay AID2060500 (Molecular Pharmacology Branch, DTP, NCI, 2025)
# System: 596521-263-R-J1-PDC complex spheroids, viability % of control
# Experiment: Anticancer human tumor 596521-263-R-J1-PDC patient-derived soft tissue sarcoma cell line growth inhibition [GQUAD]
# Settings: for IC50: curve of first compound; for viability, T/C: stronger effect = lower value
# Text: DNA G-quadruplex Stabilizer Agents in Combinations in Complex Spheroids
# A high-throughput screen of multi-cell type tumor spheroids was designed to identify active combinations of DNA G-quadruplex stabilizer agents and targeted small molecules. Complex spheroids include a stromal component modeled by human endothelial cells (HUVEC) and fibroblasts modeled by human mesenchymal stem cells (MSCs). The concentration ranges selected for each drug and investigational agent were based upon clinically achievable concentrations if the clinical Cmax of the agent was known.
# Compounds. The drugs and investigational agents: pidnarulex (CX-5461; NSC782164), APTO-253 (NSC789042), BRACO-19 (NSC847499), peposertib (NSC802822), ceralasertib (NSC780249), elimusertib (NSC800525), camonsertib (NSC841442), AZD-1390 (NSC803789), olaparib (NSC753686), talazoparib (NSC767125), ART-558 (NSC835418), sotorasib (NSC818433), MRTX-1133 (NSC836407), SN-38 (NSC673596), topotecan (NSC609699), etoposide (NSC141540), doxorubicin (NSC123127), gemcitabine (NSC613327), 5-fluorouracil (NSC19893), paclitaxel (NSC125973), vemurafenib (NSC761431), panobinostat (NSC761190), R-306465 (JNJ-16241199; NSC773264), adavosertib (NSC754352), TP-3654 (NSC805149), carboplatin (NSC241240), KSQ-4279 (NSC840948), and staurosporine (NSC755774) were obtained from the National Cancer Institute (NCI) Developmental Therapeutics Program Chemical Repository (34). The FDA-approved anticancer drug set is available from the NCI Developmental Therapeutics Program. […] The stock solutions were prepared in dimethyl sulfoxide (DMSO, Sigma-Aldrich, St. Louis, MO, cat. D2650) at 800-fold the tested concentration and stored at -70 degrees C prior to their use. All drugs and investigational agents were tested over a range starting from a high concentration at or near the clinical Cmax and decreasing in half-log increments. If the clinical Cmax for an agent had not been determined, the highest concentration tested was 10 microM.
# 2.3 Cell Culture. All cells were maintained in an incubator at 37 degrees C and 5% CO2 with 95% humidity. The PDC lines were cultured according to standard operating procedures established by the NCI PDMR. All PDCs were thawed and cultured in Matrigel-coated flasks prepared with a working solution of 1X Ham's F-12 nutrient mix, without supplementation (Invitrogen, cat. 11765054), 100 U/mL penicillin-streptomycin (Invitrogen, cat. 15140122), and 2.5% Matrigel (Corning Inc., cat. 354248) for the first three passages. The 857933-349-R-J2-PDC line was cultured in 6C/Colon 1B media, which includes advanced DMEM/F-12 (Thermo Fisher Scientific, cat. 12634028), 10 mM HEPES (Thermo Fisher Scientific, cat. 15630080), 1X GlutaMAX supplement (Thermo Fisher Scientific, cat. 35050061), 0.1 mg/mL primocin (InvivoGen, cat. ant-pm-2), 10% defined fetal bovine serum, heat inactivated (HyClone Laboratories Inc., cat. SH30070.03HI), 50% L-WRN conditioned media (ATCC, cat. CRL-3276), 1.25 mM N-Acetyl-L-cysteine (Sigma-Aldrich, cat. A9165), 10 mM nicotinamide (Sigma-Aldrich, cat. N0636), 1X B-27 supplement (Thermo Fisher Scientific, cat. 17504044), 1X N-2 supplement (Thermo Fisher Scientific, cat. 17502048), 10 microM Y-27632 dihydrochloride (Tocris Bioscience, cat. 1254), and 50 ng/mL human EGF recombinant protein (Thermo Fisher Scientific, cat. PHG0311). The 485176-168-R4-J1-PDC line was cultured in Panc media, which includes all 6C/Colon 1B media components plus 100 ng/mL human FGF-10 (Thermo Fisher Scientific, cat. 100-26), 500 nM SB-431542 (Selleckchem, cat. S1067), and gastrin (Tocris, cat. 3006).
# […]
# [1] = second compound 0.0316 µM, first compound 0.0316 µM
# [2] = second compound 0.0316 µM, first compound 0.1 µM
# [3] = second compound 0.0316 µM, first compound 0.316 µM
# [4] = second compound 0.0316 µM, first compound 1 µM
# [5] = second compound 0.0316 µM, first compound 3.16 µM
# [6] = second compound 0.0316 µM, first compound 10 µM
# [7] = second compound 0.1 µM, first compound 0.0316 µM
# [8] = second compound 0.1 µM, first compound 0.1 µM
# [9] = second compound 0.1 µM, first compound 0.316 µM
# [10] = second compound 0.1 µM, first compound 1 µM
# [11] = second compound 0.1 µM, first compound 3.16 µM
# [12] = second compound 0.1 µM, first compound 10 µM
# [13] = second compound 0.316 µM, first compound 0.0316 µM
# [14] = second compound 0.316 µM, first compound 0.1 µM
# [15] = second compound 0.316 µM, first compound 0.316 µM
# [16] = second compound 0.316 µM, first compound 1 µM
# [17] = second compound 0.316 µM, first compound 3.16 µM
# [18] = second compound 0.316 µM, first compound 10 µM
# [19] = second compound 1 µM, first compound 0.0316 µM
# [20] = second compound 1 µM, first compound 0.1 µM
# [21] = second compound 1 µM, first compound 0.316 µM
# [22] = second compound 1 µM, first compound 1 µM
# [23] = second compound 1 µM, first compound 3.16 µM
# [24] = second compound 1 µM, first compound 10 µM
# [25] = second compound 3.16 µM, first compound 0.0316 µM
# [26] = second compound 3.16 µM, first compound 0.1 µM
# [27] = second compound 3.16 µM, first compound 0.316 µM
# [28] = second compound 3.16 µM, first compound 1 µM
# [29] = second compound 3.16 µM, first compound 3.16 µM
# [30] = second compound 3.16 µM, first compound 10 µM
# [31] = second compound 10 µM, first compound 0.0316 µM
# [32] = second compound 10 µM, first compound 0.1 µM
# [33] = second compound 10 µM, first compound 0.316 µM
# [34] = second compound 10 µM, first compound 1 µM
# [35] = second compound 10 µM, first compound 3.16 µM
# [36] = second compound 10 µM, first compound 10 µM
# 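Also: spheroids exposed to drugs for 7 days before viability reading.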
compound,measurement,setting,value
C=CC(=O)N1CCN(c2nc(=O)n(-c3c(C)ccnc3C(C)C)c3nc(-c4c(O)cccc4F)c(F)cc23)C(C)C1 (centres undefined) + Cc1cnc(CNC(=O)c2c(=O)c3ccc(N4CCCN(C)CC4)nc3n3c2sc2ccccc23)cn1,IC50,second compound 0.0316 µM,> 10 µM
same,IC50,second compound 0.1 µM,> 10 µM
same,IC50,second compound 0.316 µM,> 10 µM
same,IC50,second compound 1 µM,> 10 µM
same,IC50,second compound 3.16 µM,> 10 µM
same,IC50,second compound 10 µM,< 0.0316 µM
same,"viability, T/C",[1],104%
same,"viability, T/C",[2],101%
same,"viability, T/C",[3],103%
same,"viability, T/C",[4],112%
same,"viability, T/C",[5],108%
same,"viability, T/C",[6],75.8%
same,"viability, T/C",[7],88.3%
same,"viability, T/C",[8],86.1%
same,"viability, T/C",[9],91.8%
same,"viability, T/C",[10],107%
same,"viability, T/C",[11],103%
same,"viability, T/C",[12],77.6%
same,"viability, T/C",[13],89.5%
same,"viability, T/C",[14],85.1%
same,"viability, T/C",[15],90.5%
same,"viability, T/C",[16],81.1%
same,"viability, T/C",[17],92.4%
same,"viability, T/C",[18],69.1%
same,"viability, T/C",[19],67.8%
same,"viability, T/C",[20],64.8%
same,"viability, T/C",[21],67%
same,"viability, T/C",[22],71.2%
same,"viability, T/C",[23],76.7%
same,"viability, T/C",[24],63.2%
same,"viability, T/C",[25],57.2%
same,"viability, T/C",[26],56.5%
same,"viability, T/C",[27],61.8%
same,"viability, T/C",[28],60%
same,"viability, T/C",[29],81.4%
same,"viability, T/C",[30],61.8%
same,"viability, T/C",[31],51.1%
same,"viability, T/C",[32],30.9%
same,"viability, T/C",[33],48.6%
same,"viability, T/C",[34],51%
same,"viability, T/C",[35],63.7%
same,"viability, T/C",[36],39.5%
Cc1cccc(N(C)C(=O)C2C(O)CCN2c2nc(C)cc(C(F)(F)F)c2C#N)c1 (centres undefined) + Cc1cnc(CNC(=O)c2c(=O)c3ccc(N4CCCN(C)CC4)nc3n3c2sc2ccccc23)cn1,IC50,second compound 0.0316 µM,> 10 µM
same,IC50,second compound 0.1 µM,> 10 µM
same,IC50,second compound 0.316 µM,> 10 µM
same,IC50,second compound 1 µM,> 10 µM
same,IC50,second compound 3.16 µM,> 10 µM
same,IC50,second compound 10 µM,3.38 µM
same,"viability, T/C",[1],123%
same,"viability, T/C",[2],98.5%
same,"viability, T/C",[3],106%
same,"viability, T/C",[4],98.5%
same,"viability, T/C",[5],104%
same,"viability, T/C",[6],99.3%
same,"viability, T/C",[7],87%
same,"viability, T/C",[8],87%
same,"viability, T/C",[9],93.8%
same,"viability, T/C",[10],92.4%
same,"viability, T/C",[11],86.3%
same,"viability, T/C",[12],90.9%
same,"viability, T/C",[13],74.5%
same,"viability, T/C",[14],77.9%
same,"viability, T/C",[15],81.7%
same,"viability, T/C",[16],80.6%
same,"viability, T/C",[17],85.4%
same,"viability, T/C",[18],80.6%
same,"viability, T/C",[19],63.1%
same,"viability, T/C",[20],70.7%
same,"viability, T/C",[21],60.7%
same,"viability, T/C",[22],64.7%
same,"viability, T/C",[23],68.5%
same,"viability, T/C",[24],66.3%
same,"viability, T/C",[25],64.6%
same,"viability, T/C",[26],57.9%
same,"viability, T/C",[27],62%
same,"viability, T/C",[28],52.1%
same,"viability, T/C",[29],59%
same,"viability, T/C",[30],54.4%
same,"viability, T/C",[31],50.7%
same,"viability, T/C",[32],49.8%
same,"viability, T/C",[33],49.3%
same,"viability, T/C",[34],51.8%
same,"viability, T/C",[35],51%
same,"viability, T/C",[36],41.8%
